Reference: paper PMC7707621, “Oxidized Juncuenin B Analogues with Increased Antiproliferative Activity on Human Adherent Cell Lines: Semisynthesis and Biological Evaluation” (Journal of Natural Products, 2020)

Assays:
MCF-7 cells = assay: MTT antiproliferative assay on MCF-7; format: cell-based, human; conditions: for inhibition at 10 µM / IC50 / inhibition at 30 µM: Homo sapiens; for inhibition at 10 µM: MCF7, 10 μM; for inhibition at 10 µM / inhibition at 30 µM: read-out: Growth inhibition (% ± SEM), MCF-7; for IC50: MCF7, MTT, 0.1–30 μM, 72 h, mean ± SEM, read-out: calculated IC50 values, MCF-7; for inhibition at 30 µM: MCF7, 30 μM
Experimental: (§1) The antiproliferative assays of the products were carried out by a standard MTT method on human breast (MCF-7, T47D), cervical (HeLa, SiHa, C33A), and ovarian (A2780) cancer cells, and NIH/3T3 mouse embryonic fibroblast cell lines. In the first step, the diastereomeric and racemic mixtures 1–11 and the starting compound, juncuenin B, were tested to obtain information about their antiproliferative activity.
(§2) The antiproliferative activity and tumor selectivity of the compounds were measured by standard MTT assays. Tumor cell lines MCF-7, T47D, HeLa, A2780, and noncancerous NIH/3T3 were provided by European Collection of Authenticated Cell Cultures (ECACC, Salisbury, UK); cell lines SiHa and C33A by LGC Standards GmbH (Wesel, Germany). All chemicals and materials used for the antiproliferative assays were purchased from Sigma Aldrich Ltd. (Budapest, Hungary).
(§3) Growth-inhibition properties of racemates and pure enantiomer compounds were determined by standard MTT assays on six human malignant gynecological cell lines (MCF-7, T47D, HeLa, SiHa, C33A, A2780). To investigate tumor selectivity, the MTT assay was repeated on mouse embryonic fibroblast cells (NIH/3T3) under the same conditions. All cell lines were maintained in minimal essential medium (MEM) supplemented with 10% fetal bovine serum, 1% nonessential amino acids, and 1% penicillin–streptomycin–amphotericin B mixture, and were stored in humidified air containing 5% CO2 at 37 °C. All cell types were seeded into 96–well plates at a density of 5000 with the exception of C33a, which was seeded at a density of 10 000 and treated by increasing concentrations (0.1–30 μM) of the compounds for 72 h under cell culturing conditions. After the incubation, 5 mg/mL MTT [3-(4,5-dimethylthiazol-2-yl)-2,5-diphenyltetrazolium bromide] solution was added to samples for 4 h and precipitated blue formazan crystals were dissolved in DMSO. Absorbance values of the samples were measured at 545 nm using a microplate reader (Stat Fax-2100, Awareness Technologies Inc., Palm City, FL, USA) and untreated cells were used as control. Normalized sigmoidal dose–response curves were fitted to the determined data and the IC50 values were calculated by GraphPad Prism 5.01 (GraphPad Software, San Diego, CA, USA). Cisplatin (Ebewe Pharma GmbH, Unterach, Austria) was used as a reference agent in the same concentration range.

T47D cells = assay: MTT antiproliferative assay on T47D; format: cell-based, human; conditions: for inhibition at 10 µM / IC50 / inhibition at 30 µM: Homo sapiens, T47D; for inhibition at 10 µM / inhibition at 30 µM: read-out: Growth inhibition (% ± SEM), T47d; for IC50: MTT, 0.1–30 μM, 72 h, mean ± SEM, read-out: calculated IC50 values, T47D
Experimental: as §1, §2, §3

HeLa cells = assay: MTT antiproliferative assay on HeLa; format: cell-based, human; conditions: for inhibition at 10 µM / IC50 / inhibition at 30 µM: Homo sapiens, HeLa; for inhibition at 10 µM / inhibition at 30 µM: read-out: Growth inhibition (% ± SEM), HeLa; for IC50: MTT, 0.1–30 μM, 72 h, mean ± SEM, read-out: calculated IC50 values, HeLa
Experimental: as §1, §2, §3

SiHa cells = assay: MTT antiproliferative assay on SiHa; format: cell-based, human; conditions: for inhibition at 10 µM / IC50 / inhibition at 30 µM: Homo sapiens, SiHa; for inhibition at 10 µM / inhibition at 30 µM: read-out: Growth inhibition (% ± SEM), SiHa; for IC50: MTT, 0.1–30 μM, 72 h, mean ± SEM, read-out: calculated IC50 values, SiHa
Experimental: as §1, §2, §3

C33A cells = assay: MTT antiproliferative assay on C33A; format: cell-based, human; conditions: for IC50 / inhibition at 10 µM / inhibition at 30 µM: Homo sapiens, C-33-A; for IC50: MTT, 0.1–30 μM, 72 h, mean ± SEM, read-out: calculated IC50 values, C33A; for inhibition at 10 µM / inhibition at 30 µM: read-out: Growth inhibition (% ± SEM), C33a
Experimental: as §1, §2, §3

A2780 cells = assay: MTT antiproliferative assay on A2780; format: cell-based, human; conditions: for IC50 / inhibition at 10 µM / inhibition at 30 µM: Homo sapiens; for IC50: A2780, MTT, 0.1–30 μM, 72 h, mean ± SEM, read-out: calculated IC50 values, A2780; for inhibition at 10 µM: A2780, 10 μM; for inhibition at 10 µM / inhibition at 30 µM: read-out: Growth inhibition (% ± SEM), A2780; for inhibition at 30 µM: A2780, 30 μM
Experimental: as §1, §2, §3

[1] = test system: NIH/3T3 mouse embryonic fibroblast cells; assay: MTT assay for tumor selectivity on NIH/3T3; format: cell-based; conditions: Mus musculus, NIH3T3; for IC50: MTT, 0.1–30 μM, 72 h, mean ± SEM, read-out: calculated IC50 values, NIH/3T3; for inhibition at 10 µM / inhibition at 30 µM: read-out: Growth inhibition (% ± SEM), NIH
Experimental: as §1, §2, §3

Row | Structure (SMILES) | inhibition at 10 µM (MCF-7 cells) [%] | IC50 (MCF-7 cells) [µM] | inhibition at 10 µM (T47D cells; 10 μM) [%] | IC50 (T47D cells) [µM] | inhibition at 10 µM (HeLa cells; 10 μM) [%] | IC50 (HeLa cells) [µM] | inhibition at 10 µM (SiHa cells; 10 μM) [%] | IC50 (SiHa cells) [µM] | IC50 (A2780 cells) [µM] | IC50 [1] [µM] | inhibition at 30 µM (MCF-7 cells) [%] | inhibition at 30 µM (T47D cells; 30 μM) [%] | inhibition at 30 µM (HeLa cells; 30 μM) [%] | inhibition at 30 µM (SiHa cells; 30 μM) [%] | inhibition at 10 µM (C33A cells; 10 μM) [%] | inhibition at 30 µM (C33A cells; 30 μM) [%] | inhibition at 10 µM (A2780 cells) [%] | inhibition at 30 µM (A2780 cells) [%] | inhibition at 10 µM [1] [%] | inhibition at 30 µM [1] [%] | other results
1 | C=CC1=C(C)C(=O)C=C2C3=C(CCC21OCC)C(C)(OCC)C(=O)C=C3 (single isomer, unassigned) [Compound 6a] | 19.6 ± 1.7 | > 30 | < 10 | 22.9 ± 1.6 | < 10 | 25.9 ± 0.3 | < 10 | 29.7 ± 0.2 | 11.2 ± 0.3 | 24.5 ± 1.9 | – | – | – | – | – | – | – | – | – | – | Growth inhibition (% ± SEM), MCF-7 (MCF-7 cells; 30 μM): 45.64±0.26%; Growth inhibition (% ± SEM), T47d (T47D cells; 30 μM): 63.48±0.80%; Growth inhibition (% ± SEM), HeLa (HeLa cells; 30 μM): 67.85±1.23%; Growth inhibition (% ± SEM), SiHa (SiHa cells; 30 μM): 68.74±1.56%; Growth inhibition (% ± SEM), C33a (C33A cells; 10 μM): 21.08±1.92%; Growth inhibition (% ± SEM), C33a (C33A cells; 30 μM): 93.17±0.50%; IC50 (C33A cells): 14.1 ± 0.2 µM; Growth inhibition (% ± SEM), A2780 (A2780 cells; 10 μM): 43.71±2.91%; Growth inhibition (% ± SEM), A2780 (A2780 cells; 30 μM): 93.85±0.75%
2 | C=CC1=C(C)C(=O)C=C2C3=C(CCC21OCC)C(C)(OCC)C(=O)C=C3 (single isomer, unassigned) [Compound 6b] | – | – | – | – | – | – | – | – | – | – | – | – | – | – | – | – | – | – | – | – | Growth inhibition (% ± SEM), MCF-7 (MCF-7 cells; 10 μM): 14.17±2.25%; Growth inhibition (% ± SEM), MCF-7 (MCF-7 cells; 30 μM): 21.81±2.36%; Growth inhibition (% ± SEM), T47d (T47D cells; 10 μM): < 10%; Growth inhibition (% ± SEM), T47d (T47D cells; 30 μM): < 10%; Growth inhibition (% ± SEM), HeLa (HeLa cells; 10 μM): < 10%; Growth inhibition (% ± SEM), HeLa (HeLa cells; 30 μM): < 10%; Growth inhibition (% ± SEM), SiHa (SiHa cells; 10 μM): < 10%; Growth inhibition (% ± SEM), SiHa (SiHa cells; 30 μM): < 10%; Growth inhibition (% ± SEM), C33a (C33A cells; 10 μM): < 10%; Growth inhibition (% ± SEM), C33a (C33A cells; 30 μM): < 10%; Growth inhibition (% ± SEM), A2780 (A2780 cells; 10 μM): < 10%; Growth inhibition (% ± SEM), A2780 (A2780 cells; 30 μM): < 10%
3 | C=CC1=C(C)C(=O)C=C2C3=C(CCC21OC)C(C)(OC)C(=O)C=C3 (centres unmarked) [1a–1d, 2,6-dioxo-1,8a-dimethoxy-1,7-dimethyl-8-vinyl-9,10-dihydrophenanthrenes] | 28.7 ± 1.81 | 11.6 | 14.6 ± 4.44 | – | 12.7 ± 1.94 | – | 18.1 ± 3.53 | 20 | – | 17.7 ± 0.7 | 67.1 ± 1.9 | 76 ± 2.1 | 86.7 ± 1.22 | 77.9 ± 0.78 | 74.3 ± 0.8 | 94.97 ± 0.12 | 67.1 ± 1.37 | 94.93 ± 0.94 | – | – | –
4 | C=CC1=C(C)C(=O)C=C2C3=C(CC[C@@]21OC)[C@@](C)(OC)C(=O)C=C3 [Compound 1a, 2,6-dioxo-1,8a-dimethoxy-1,7-dimethyl-8-vinyl-9,10-dihydrophenanthrenes] | < 10 | > 30 | 14.1 ± 1.87 | > 30 | < 10 | > 30 | < 10 | > 30 | 13.3 ± 1.5 | > 30 | 33.1 ± 1.15 | 32.5 ± 1.96 | 47.8 ± 3.28 | < 10 | 19.5 ± 2.08 | 87.97 ± 0.34 | 25.1 ± 1.6 | 87.7 ± 1.1 | < 10 | 32.1 ± 1.88 | –
5 | C=CC1=C(C)C(=O)C=C2C3=C(CC[C@]21OC)[C@@](C)(OC)C(=O)C=C3 [Compound 1b, 2,6-dioxo-1,8a-dimethoxy-1,7-dimethyl-8-vinyl-9,10-dihydrophenanthrenes] | 14.2 ± 3.54 | > 30 | 13.6 ± 1.33 | > 30 | 16.3 ± 2.68 | > 30 | < 10 | > 30 | 9 ± 1 | – | 31.9 ± 1.28 | 43.8 ± 1.31 | 42.6 ± 2.07 | 27.7 ± 1.96 | 46 ± 2.01 | 95.12 ± 0.44 | 52.2 ± 1.02 | 96.61 ± 0.23 | < 10 | 41.9 ± 1.35 | IC50 (C33A cells): 10.2 ± 1.7 µM
6 | C=CC1=C(C)C(=O)C=C2C3=C(CC[C@@]21OC)[C@](C)(OC)C(=O)C=C3 [Compound 1c, 2,6-dioxo-1,8a-dimethoxy-1,7-dimethyl-8-vinyl-9,10-dihydrophenanthrenes] | 10.2 ± 4.97 | > 30 | 36.4 ± 2.76 | 12.5 ± 0.9 | 28.3 ± 1.66 | > 30 | < 10 | 28.1 ± 0.1 | – | – | 28.1 ± 1.14 | 84.5 ± 1.63 | 36.1 ± 0.87 | 57.5 ± 2.33 | 85.7 ± 1.16 | 96.31 ± 0.17 | 68.5 ± 0.75 | 98.88 ± 0.1 | < 10 | 69.4 ± 1.87 | –
